# According to patent publication US20090233998A1, “Desmosdumotins, the Method for Preparing the Same and Use as Anti-Tumor or Anti-AIDS Agents” (priority 2004, published 2009):
# Read-outs that look alike come from different tables or passages of the source.
# What was measured:
# [1] = system: A549 (human lung carcinoma); assay: in vitro cytotoxicity against human tumor cell replication, A549; format: cell-based; conditions: for EC50: read-out: ED50 (the source's name)
# From the text: (§1) Cancer cell used in cytotoxicity evaluation in vitro were all from human, including lung cancer cell line (A549), breast cancer cell line (MCF-7), ovarian cancer cell line (1A9), epidermoid nasopharyngeal carcinoma cell line (KB), vincristine-resistant cells (KB-VIN), melanoma cancer cell line (SK-MEL-2), ileocecal cancer cell line (HCT-8), renal carcinoma cell line (CAKI), bone cancer cell line (HOS), et al. the anti-cancer ability of the compound represented by half-effective amount (ED50). Control drug was V16 (Etoposide).
# [2] = system: KB-VIN (vincristine-resistant KB cells, multi-drug resistant expressing P-glycoprotein); assay: in vitro cytotoxicity against human tumor cell replication, KB-VIN; format: cell-based; conditions: for EC50: read-out: ED50 (the source's name)
# From the text: as §1
# [3] = system: 1A9 (human ovarian carcinoma); assay: in vitro cytotoxicity against human tumor cell replication, 1A9; format: cell-based; conditions: for EC50: read-out: ED50 (the source's name)
# From the text: as §1
# [4] = system: KB (human epidermoid carcinoma of the nasopharynx); assay: in vitro cytotoxicity against human tumor cell replication, KB; format: cell-based; conditions: for EC50: read-out: ED50 (the source's name)
# From the text: as §1
# [5] = system: MCF-7 (breast cancer cell line); assay: in vitro cytotoxicity against human tumor cell replication, MCF-7; format: cell-based
# From the text: as §1
# human tumor cell lines = assay: in vitro evaluation against a panel of several cancer cell lines; format: cell-based
# From the text: as §1
# [6] = system: KB (human epidermoid carcinoma of the nasopharynx); conditions: parent KB cell line; background section; cited from earlier work
# [7] = system: MCF-7 (breast cancer cell line); conditions: background section; cited from earlier work
# [8] = system: 1A9 (human ovarian carcinoma); conditions: IA9 ovarian cancer cell; background section; cited from earlier work
# [9] = system: KB-VIN (vincristine-resistant KB cells, multi-drug resistant expressing P-glycoprotein); conditions: background section; cited from earlier work
# Sarcoma S180 = assay: tumor-inhibiting test of mice S180; format: in vivo, Kunming mice; conditions: for Inhibition Rate: S180 tumor growth
# Method: (§2) The tumor activity […] testing represented by acute toxicity test and tumor-inhibiting testing of mice S180, Method: LD50 of desmosdumotin C to Kunming mice by vein route was obtained by the general acute toxicity test method. Sarcoma S180 was hypodermic inoculated to mice, drug administrated, compared drug group with control group, inhibition rate was calculated, P value show the statistical difference. […].
# Kunming mice = assay: in vivo; conditions: for Death Rate: Kunming, mouse, in vivo, iv, 14 days
# Method: as §2
# in vivo = conditions: both sexes, Kunming, mouse, in vivo, Kunming mice, single vein injection, half male/half female
# Method: as §2
structure (smiles),measurement,setting,value
"COC1=C(C)C(=O)C(=C(O)C=Cc2ccc(Br)cc2)C(=O)C1(C)C [Compound 2, 2-[1′-Hydroxy-3-(4-bromophenyl)-allylidene]-5-methoxy-4,6,6-trimethylcyclohex-4-ene-1,3-dione]",EC50,[1]; Homo sapiens,3.57 µM
same,EC50,"[2]; Homo sapiens, KBVIN",4.84 µM
same,EC50,[3]; Homo sapiens,2.8 µM
same,EC50,[4]; Homo sapiens,4.33 µM
"COC1=C(C)C(=O)C(=C(O)C=Cc2cccs2)C(=O)C1(C)C [Compound 8, 2-(1′-Hydroxy-3′-thiophen-2″-yl-allylidene)-5-methoxy-4,6,6-trimethyl-cyclohex-4-ene-1,3-dione]",EC50,[1],14.1 µM
same,EC50,[2],10.7 µM
same,EC50,[3],12.5 µM
same,EC50,[4],17.2 µM
"COC1=C(C)C(=O)C(=C(O)C=Cc2ccc(O)cc2)C(=O)C1(C)C [Compound 6, 2-[1′-Hydroxy-3-(4-hydroxyphenyl)-allylidene]-5-methoxy-4,6,6-trimethyl-cyclohex-4-ene-1,3-dione]",EC50,[1]; Homo sapiens,9.48 µM
same,EC50,"[2]; Homo sapiens, KBVIN",11.6 µM
same,EC50,[3]; Homo sapiens,8.86 µM
same,EC50,[4]; Homo sapiens,11.6 µM
COC1=C(C)C(=O)C(=C(O)C=Cc2nccs2)C(=O)C1(C)C [Compound 9],EC50,[1],10.9 µM
same,EC50,[2],9.37 µM
same,EC50,[3],10.9 µM
same,EC50,[4],13.4 µM
"CC1=C(O)C2=C(OC(c3ccccc3)CC2=O)C(C)(C)C1=O (stereo not drawn) [Compound 11, 7-hydroxyl-6,8,8-trimethyl-2-phenyl-2,3-dihydrogen-8H-chromene-4,5-dione]",ED50,[5],>5 µg/mL
same,ED50,[1],13.5 µg/mL
same,ED50,[2],7.5 µg/mL
same,ED50,[3],8.0 µg/mL
same,ED50,[4],10.5 µg/mL
"COC1=C(C)C(=O)C(=C(O)C=Cc2ccco2)C(=O)C1(C)C [Compound 7, 2-(3′-Furan-2″-yl-1′-hydroxy-allylidene)-5-methoxy-4,6,6-trimethyl-cyclohex-4-ene-1,3-dione]",EC50,[1],33 µM
same,EC50,[2],29 µM
same,EC50,[3],26.1 µM
same,EC50,[4],32.7 µM
"CC1=C(O)C(C)(C)c2oc(-c3ccccc3)cc(=O)c2C1=O [Desmosdumotin B, 7-hydroxyl-6,8,8-trimethyl-2-phenyl-8H-chromene-4,5-dione]",ED50,[5],>5 µg/mL
same,ED50,[1],28.0 µg/mL
same,ED50,[2],2.0 µg/mL
same,ED50,[3],36.0 µg/mL
same,ED50,[4],>40 µg/mL
"COC1=C(C)C(=O)C(=C(O)C=Cc2ccc(OC)cc2)C(=O)C1(C)C [Compound 5, 2-[1′-Hydroxy-3-(4-methoxyphenyl)-allylidene]-5-methoxy-4,6,6-trimethyl-cyclohex-4-ene-1,3-dione]",EC50,[1]; Homo sapiens,6.99 µM
same,EC50,"[2]; Homo sapiens, KBVIN",8.16 µM
same,EC50,[3]; Homo sapiens,7.28 µM
same,EC50,[4]; Homo sapiens,9.62 µM
"COC1=C(C)C(=O)C(=C(O)C=Cc2cccc(OC)c2)C(=O)C1(C)C [Compound 4, 2-[1′-Hydroxy-3-(3-methoxyphenyl)-allylidene]-5-methoxy-4,6,6-trimethyl-cyclohex-4-ene-1,3-dione]",EC50,[1]; Homo sapiens,8.16 µM
same,EC50,"[2]; Homo sapiens, KBVIN",6.99 µM
same,ED50,[3],0.7 µg/mL
same,EC50,[3]; Homo sapiens,8.45 µM
same,EC50,[4]; Homo sapiens,9.62 µM
same,anti-tumor activity compared with the leading compound,human tumor cell lines; versus desmosdumotin C,more significant anti-tumor activity than the leading compound
"CC1=C(O)C(C)(C)C(=O)/C(=C(O)\C=C\c2ccccc2)C1=O [Compound 12, 2-[(1′-hydroxy-2′-ene-3′-phenyl)propenylene]-5-hydroxy-4,6,6-trimethyl-1,3-cyclohexene(4,5)-dione]",ED50,[5],> 5 µg/mL
same,ED50,[1],9.0 µg/mL
same,ED50,[2],6.5 µg/mL
same,ED50,[3],8.0 µg/mL
same,ED50,[4],10.5 µg/mL
"COC1=C(C)C(=O)C(=C(O)C=Cc2ccccc2OC)C(=O)C1(C)C [Compound 3, 2-[1′-Hydroxy-3-(2-methoxyphenyl)-allylidene]-5-methoxy-4,6,6-trimethylcyclohex-4-ene-1,3-dione]",EC50,[1]; Homo sapiens,8.74 µM
same,EC50,"[2]; Homo sapiens, KBVIN",8.45 µM
same,EC50,[3]; Homo sapiens,8.16 µM
same,EC50,[4]; Homo sapiens,10.5 µM
same,activity relative to desmosdumotin C,human tumor cell lines; fold of desmosdumotin C,4 times
"COC1=CC(=O)c2c(oc(-c3ccccc3)cc2=O)C1(C)C [Compound 14, 7-methoxy-8,8-dimethyl-2-phenyl-8H-chromene-4,5-dione]",ED50,[1],2.0 µg/mL
same,ED50,[3],0.7 µg/mL
same,ED50,[4],1.8 µg/mL
"COC1=C(C)C(=O)/C(=C(O)/C=C/c2ccccc2)C(=O)C1(C)C [Desmosdumotin C, 2-[(1′-hydroxy-2′-ene-3′-phenyl)propenylene]-5-methoxy-4,6,6-trimethyl-1,3-cyclohexene (4,5)-dione]",EC50,"[5]; Homo sapiens, MCF7, read-out: ED50 (the source's name)",12.8 µM
same,EC50,"[2]; Homo sapiens, KBVIN",17.9 µM
same,ED50,[6],< 6.5 µg/mL
same,ED50,[7],< 3.8 µg/mL
same,EC50,[3]; Homo sapiens,12.8 µM
same,ED50,[8],< 4.0 µg/mL
same,EC50,[4]; Homo sapiens,20.8 µM
same,ED50,[9],< 5.6 µg/mL
same,Tumor Weight X ± SD,"Sarcoma S180; S180, 2.5 mg/kg iv × 10qd",1.99 ± 0.18
same,Tumor Weight X ± SD,"Sarcoma S180; S180, 5 mg/kg iv × 10qd",1.62 ± 0.22
same,Tumor Weight X ± SD,"Sarcoma S180; S180, 10 mg/kg iv × 10qd",1.51 ± 0.21
same,Inhibition Rate,Sarcoma S180; 2.5 mg/kg iv × 10qd,30.18%
same,Inhibition Rate,Sarcoma S180; 5 mg/kg iv × 10qd,43.16%
same,Inhibition Rate,Sarcoma S180; 10 mg/kg iv × 10qd,47.02%
same,LD50,"Kunming mice; Kunming mice, single vein injection, half male/half female",46.0 mg/kg
same,Death Rate,"Kunming mice; both, 32.8 mg/kg",0%
same,Death Rate,"Kunming mice; both, 40.96 mg/kg",40%
same,Death Rate,"Kunming mice; both, 51.2 mg/kg",70%
same,Death Rate,"Kunming mice; both, 64 mg/kg",90%
same,Death Rate,"Kunming mice; both, 80 mg/kg",100%
same,Death Rate,"Kunming mice; female, 32.8 mg/kg",0%
same,Death Rate,"Kunming mice; female, 40.96 mg/kg",40%
same,Death Rate,"Kunming mice; female, 51.2 mg/kg",80%
same,Death Rate,"Kunming mice; female, 64 mg/kg",80%
same,Death Rate,"Kunming mice; female, 80 mg/kg",100%
same,Death Rate,"Kunming mice; male, 32.8 mg/kg",0%
same,Death Rate,"Kunming mice; male, 40.96 mg/kg",40%
same,Death Rate,"Kunming mice; male, 51.2 mg/kg",60%
same,Death Rate,"Kunming mice; male, 64 mg/kg",100%
same,Death Rate,"Kunming mice; male, 80 mg/kg",100%
same,LD50,in vivo; read-out: LD50,> 46 mg/kg
same,LD50,in vivo; read-out: LD50 (95% CL),39.8 to 53.1 mg/kg
"COC1=C(C)C(=O)C(=C(O)C=Cc2ccccc2)C(=O)C1(C)C [Compound 13, 2-[(1′-hydroxy-2′-ene-3′-phenyl)propenylene)-5-methoxy-4,6,6-trimethyl-1,3-cyclohexene (4,5)-diketone]",ED50,[5],> 5 µg/mL
same,ED50,[1],> 5 µg/mL
same,ED50,[2],2.9 µg/mL
same,ED50,[3],3.63 µg/mL
same,ED50,[4],4.1 µg/mL
